{
  "source": "patent US9895352B2",
  "about": "“Indolinone compounds and uses thereof” (Oncternal Therapeutics, Inc., priority 2014, dated 2018)",
  "key": {"[1]": {"test_system": "SKES cells (Ewing Sarcoma cell line)", "assay": "CCK-8 tetrazolium tumor cell growth inhibition, SKES", "format": "cell-based", "conditions": "Homo sapiens, 72 h, SKES cells, 3 days with compound, CCK-8 (TABLE 3)", "method": "A modified tetrazolium salt assay using the CCK-8 kit (Sigma-Aldrich; St Louis, Mo.) was used to measure the inhibition of human tumor cell growth. Tumor cells (5000-7500 per well) were added to 96 well plates and allowed to attach for 4-5 hours. Compounds were serially diluted and added in triplicate at a concentration of 0.02 to 5 μM. DMSO was included as a vehicle control. Cells were incubated in the presence of compound for 3 days. After incubation CCK-8 reagent was added to each well and incubated for 2-4 hours. Viable cells were quantitated spectrophotometrically at a wavelength of 450 nm. Percent viability of each sample was calculated from the A450 values as follows: % viability=(A450 nm sample/A450 nm DMSO-treated cells×100). […] IC50 activities of particular compounds were determined using SKES cells (Ewing Sarcoma cell line)."}, "[2]": {"assay": "Metabolic stability, half-life and clearance in human liver microsomes", "format": "in vitro ADME", "conditions": "for CLhep: hepatic clearance where blood flow = 20 mL/min/kg", "method": "(§1) Half-life and clearance rates for certain compounds were assayed with human liver microsomes and human hepatocytes. […] At each time point (0, 5, 15, 30, 60, 90 min) the reactions were stopped, vortexed and centrifuged. Supernatents were frozen until LC/MS/MS analysis. The results for human liver microsomes and human hepactocytes are summarized in TABLE 9, and TABLE 10, respectively. Certain compounds were assayed with human liver microsomes (HLM) and human hepatocytes, and metabolites were detected. Briefly, metabolic stability was tested at one TA concentration (e.g., 1 μM) in duplicate. […] Incubations were saved and used for metabolite identification using LC/MS/MS. […] The slope of the linear regression from log percentage remaining versus incubation time relationships (−k) was determined by linear regression fitting. From the individual log percentage remaining time profiles, the mean half-life and intrinsic clearance were reported. UHPLC-HRMS or UHPLC-MS/MS experiment was performed on the authentic test articles to check for possible common fragment ions. […] The metabolites were summarized based on their mass spectrometry peak areas."}, "[3]": {"assay": "Metabolic stability, half-life and clearance in human hepatocytes", "format": "in vitro ADME", "conditions": "for % remaining / half-life: Human hepatocytes; for CLhep: human hepatocytes, hepatic clearance where blood flow = 20 mL/min/kg", "method": "as §1"}, "[4]": {"assay": "Half-life in mouse hepatocytes", "format": "in vitro ADME", "conditions": "read-out: Half life of cmpds", "method": "(§2) In another study, metabolism of compounds in hepatocytes from various species was examined. Hepatocytes were contacted with a compound, and the half-life of the compound was determined."}, "[5]": {"assay": "Half-life in rat hepatocytes", "format": "in vitro ADME", "conditions": "for half-life: read-out: Half life of cmpds", "method": "as §2"}, "[6]": {"assay": "Half-life in dog hepatocytes", "format": "in vitro ADME", "conditions": "for half-life: read-out: Half life of cmpds", "method": "as §2"}, "[7]": {"assay": "Half-life in human hepatocytes", "format": "in vitro ADME", "conditions": "read-out: Half life of cmpds", "method": "as §2"}, "in vitro [8]": {"assay": "in vitro", "conditions": "rat, liver microsomes"}, "in vitro [9]": {"assay": "in vitro", "conditions": "mouse"}, "[10]": {"assay": "not given", "remark": "listed apart in the source"}, "[11]": {"assay": "not given", "remark": "listed apart in the source"}, "[12]": {"assay": "not given", "remark": "listed apart in the source"}, "[13]": {"conditions": "human liver microsome, no cofactor, 60 min"}},
  "note": "pIC50: −log10 of the molar value. Read-outs that look alike come from different tables or passages of the source.",
  "data": [
    {"smiles": "COc1ccc(C(=O)CC2(O)C(=O)Nc3c(Cl)ccc(Cl)c32)cc1", "note": "(racemic) [Cmpd 1, 4,7-Dichloro-3-hydroxy-3-[2-(4-methoxyphenyl-2-oxoethyl)]-1,3-dihydroindol-2-one]", "values": [
      {"measurement": "pIC50", "setting": "[1]", "result": "> 5.30"},
      {"measurement": "% remaining", "setting": "[2]", "result": 5, "unit": "%"},
      {"measurement": "half-life", "setting": "[2]", "result": 10.3, "unit": "min"},
      {"measurement": "CLhep", "setting": "[2]", "result": 17.28, "unit": "mL/min/kg"},
      {"measurement": "% remaining", "setting": "[3]", "result": 48, "unit": "%"},
      {"measurement": "half-life", "setting": "[3]", "result": 226, "unit": "min"},
      {"measurement": "CLhep", "setting": "[3]", "result": 8.7, "unit": "mL/min/kg"},
      {"measurement": "half-life", "setting": "[4]", "result": 30.9, "unit": "min"},
      {"measurement": "half-life", "setting": "[5]", "result": 14.2, "unit": "min"},
      {"measurement": "half-life", "setting": "[6]", "result": 16.7, "unit": "min"},
      {"measurement": "half-life", "setting": "[7]", "result": 45.5, "unit": "min"}
    ]},
    {"smiles": "CNc1ccc(C(=O)CC2(O)C(=O)Nc3c(Cl)ccc(Cl)c32)cc1", "note": "(racemic) [Cmpd 7, 4,7-dichloro-3-hydroxy-3-[2-[4-(methylamino)phenyl]-2-oxoethyl]-1H-indol-2-one]", "values": [
      {"measurement": "% remaining", "setting": "[2]", "result": 49, "unit": "%"},
      {"measurement": "half-life", "setting": "[2]", "result": "> 45", "unit": "min"},
      {"measurement": "CLhep", "setting": "[2]", "result": "~11.54", "unit": "mL/min/kg"},
      {"measurement": "% remaining", "setting": "[3]", "result": 100, "unit": "%"},
      {"measurement": "half-life", "setting": "[3]", "result": "> 240", "unit": "min"},
      {"measurement": "CLhep", "setting": "[3]", "result": "<8.7", "unit": "mL/min/kg"}
    ]},
    {"smiles": "O=C(CC1(O)C(=O)Nc2c(Cl)ccc(Cl)c21)c1ccc(C2CC2)c(F)c1", "note": "(single isomer, unassigned) [Cmpd 37, 4,7-Dichloro-3-(2-(4-cyclopropyl-3-fluorophenyl)-2-oxoethyl)-3-hydroxyindolin-2-one]", "values": [
      {"measurement": "Remaining (NCF = 60 min)", "setting": "[13]", "result": 103.4, "unit": "%"},
      {"measurement": "half-life", "setting": "in vitro [8]", "result": 3.5, "unit": "min"},
      {"measurement": "half-life", "setting": "in vitro [9]; liver microsomes", "result": 20.7, "unit": "min"}
    ]},
    {"smiles": "O=C(CC1(O)C(=O)Nc2c(Cl)ccc(Cl)c21)c1ccc(C2CC2)cc1F", "note": "(single isomer, unassigned) [Cmpd 39, 4,7-Dichloro-3-(2-(4-cyclopropyl-2-fluorophenyl)-2-oxoethyl)-3-hydroxyindolin-2-one]", "values": [
      {"measurement": "Remaining (NCF = 60 min)", "setting": "[13]", "result": 100.0, "unit": "%"},
      {"measurement": "half-life", "setting": "in vitro [8]", "result": 3, "unit": "min"}
    ]},
    {"smiles": "CCOc1ccc2ccc(=O)oc2c1", "note": "[7-Ethoxycoumarin, reference compound]", "values": [
      {"measurement": "half-life", "setting": "[4]", "result": 37.9, "unit": "min"},
      {"measurement": "half-life", "setting": "[5]", "result": 38.2, "unit": "min"},
      {"measurement": "Half life of cmpds", "setting": "[6]", "result": 9.14, "unit": "min"},
      {"measurement": "half-life", "setting": "[7]", "result": 45.3, "unit": "min"}
    ]},
    {"smiles": "O=c1ccc2ccc(O)cc2o1", "note": "[7-Hydroxycoumarin, reference compound]", "values": [
      {"measurement": "half-life", "setting": "[4]", "result": 15.8, "unit": "min"},
      {"measurement": "Half life of cmpds", "setting": "[5]", "result": 12.41, "unit": "min"},
      {"measurement": "half-life", "setting": "[6]", "result": 9.38, "unit": "min"},
      {"measurement": "half-life", "setting": "[7]", "result": 20.8, "unit": "min"}
    ]},
    {"smiles": "O=C(O)Cc1ccccc1Nc1c(Cl)cccc1Cl", "note": "[Diclofenac, reference compound]", "values": [
      {"measurement": "Remaining (NCF = 60 min)", "setting": "human, microsomes, 1 h", "result": 77.8, "unit": "%"},
      {"measurement": "Remaining (NCF = 60 min)", "setting": "[10]; rat, microsomes, 1 h", "result": 94.1, "unit": "%"},
      {"measurement": "Remaining (NCF = 60 min)", "setting": "[11]; mouse, microsomes, 1 h", "result": 88.1, "unit": "%"},
      {"measurement": "Remaining (NCF = 60 min)", "setting": "[12]; dog, microsomes, 1 h", "result": 89.6, "unit": "%"},
      {"measurement": "half-life", "setting": "in vitro [9]; microsomes", "result": 39.2, "unit": "min"}
    ]},
    {"smiles": "C[C@]12CC[C@H]3[C@@H](CCC4=CC(=O)CC[C@@]43C)[C@@H]1CC[C@@H]2O", "note": "[Testosterone, reference compound]", "values": [
      {"measurement": "Remaining (NCF = 60 min)", "setting": "[13]", "result": 88.1, "unit": "%"},
      {"measurement": "Remaining (NCF = 60 min)", "setting": "[10]; rat liver microsome, no cofactor, 60 min", "result": 87.3, "unit": "%"},
      {"measurement": "Remaining (NCF = 60 min)", "setting": "[11]; mouse liver microsome, no cofactor, 60 min", "result": 83.6, "unit": "%"},
      {"measurement": "Remaining (NCF = 60 min)", "setting": "[12]; dog liver microsome, no cofactor, 60 min", "result": 91.0, "unit": "%"},
      {"measurement": "half-life", "setting": "in vitro [9]; microsomes", "result": 3.3, "unit": "min"}
    ]}
  ]
}
